Source: patent publication US20130046257A1, “METHODS OF USING AGENTS THAT MODULATE CLAUDIN EXPRESSION” (priority 2010, published 2013)

Key:
CLDN1 mRNA = experiment: qPCR of CLDN1 in PHK treated with ciglitazone; format: cell-based, human; conditions: CIG 5 μM, 24 h, PHK in high Calcium media (DMEM)
Experimental: (§1) PHK were differentiated in high Calcium media (DMEM) in the presence of CIG 5 μM in DMSO or media with equivalent amount of DMSO alone, for 24 h. Total RNA was extracted from PHK using the QlAshredder spin column (Qiagen) and RNeasy RNA isolation kits (Qiagen). The quality of total RNA samples (RNA Integrity Number, RIN) was assessed using an Agilent 2100 Bioanalyzer (Agilent Technologies, Palo Alto, Calif.).
(§2) qPCR was performed using the iScript™ cDNA Synthesis kit and iQ™ SYBER Green Supermix assay system (Bio-Rad Laboratories). All PCR amplifications were carried out in triplicate on an iQ5 Multicolor real-time PCR detection system (Bio-Rad). Primers were designed and synthesized by Integrated DNA Technologies. Relative gene expression was calculated by using the 2^−ΔΔCt method, as previously described. The normalized Ct value of each sample was calculated using GAPDH as an endogenous control gene.

occludin mRNA = experiment: qPCR of occludin in PHK treated with ciglitazone; format: cell-based, human; conditions: CIG 5 μM, 24 h, PHK in high Calcium media (DMEM)
Experimental: as §1, §2

[1] = system: human cultured keratinocytes and reconstructed human epidermis; conditions: Kurasawa et al. 2009; cited from earlier work
human epidermis sheet = experiment: TEER of human epidermal sheets treated with sodium decanoate; format: cell-based; conditions: 1 mM, T0
Text: Epidermal sheets were obtained from discarded human skin using a weck blade (0.08 inch). Epidermal samples were mounted in an adapted snap-well system (Pierro et al., “Zonula Occludens Toxin Structure-Function Analysis, Identification of the Fragment Biologically Active on Tight Junctions and of the Zonulin Receptor Binding Domain,” J. Biol.

occludin and ZO-1 = experiment: Expression of occludin and ZO-1 in PHK differentiated with Th2 cytokines; format: cell-based, human; conditions: PHK differentiated with cytokine
Experimental: (§3) Human keratinocytes were isolated from neonatal foreskin. Poumay et al., “Basal Detachment of the Epidermis Using Dispase: Tissue Spatial Organization and Fate of Integrin Alpha 6 Beta 4 and Hemidesmosomes,” J. Invest. Dermatol. 102:111-7 (1994), which is hereby incorporated by reference in its entirety. PHK were cultured in Keratinocyte-SFM (Invitrogen/Gibco) with 1% Pen/Strep, 0.2% Amphotericin B (Invitrogen/Gibco). To differentiate PHK, cells were grown in DMEM (Invitrogen/Gibco) with 10% heat-inactivated fetal bovine serum (Invitrogen/Gibco) and 1% Pen/Strep, 0.2% Amphotericin B (Invitrogen/Gibco). For TJ modulation experiments, the following cytokines were added alone or in combination to the differentiation media; human IL-4 (50 ng/ml; R&D system) and IL-13 (50 ng/ml; R&D system). […]
(§4) Previous studies have shown that claudin-1 expression in noncutaneous epithelial cells can be modulated by cytokines and growth factors. […] To test this possibility, PHK were differentiated in the presence or absence of Th2 cytokines, IL-4 and IL-13, and the expression of claudin-1, occludin and ZO-1 was evaluated. […]

claudin-1 = experiment: Western blot of claudin-1 in PHK differentiated with Th2 cytokines; format: cell-based, human; conditions: 48 hours, 50 ng/ml, n=3
Experimental: as §3, §4

[2] = system: primary human keratinocytes (PHK); experiment: Trans Epithelial Electric Resistance (TEER) of PHK; format: cell-based
Experimental: Human keratinocytes were isolated from neonatal foreskin. Poumay et al., “Basal Detachment of the Epidermis Using Dispase: Tissue Spatial Organization and Fate of Integrin Alpha 6 Beta 4 and Hemidesmosomes,” J. Invest. Dermatol. 102:111-7 (1994), which is hereby incorporated by reference in its entirety. PHK were cultured in Keratinocyte-SFM (Invitrogen/Gibco) with 1% Pen/Strep, 0.2% Amphotericin B (Invitrogen/Gibco). To differentiate PHK, cells were grown in DMEM (Invitrogen/Gibco) with 10% heat-inactivated fetal bovine serum (Invitrogen/Gibco) and 1% Pen/Strep, 0.2% Amphotericin B (Invitrogen/Gibco). For TJ modulation experiments, the following cytokines were added alone or in combination to the differentiation media; human IL-4 (50 ng/ml; R&D system) and IL-13 (50 ng/ml; R&D system).
PHK were plated at a subconfluent density of 2.5−3×10^4 cells/filter in Transwell insert and cultured in Keratinocyte-SFM media until confluent. TEER was measured using an EVOMX voltohmmeter (World Precision Instruments, Sarasota, Fla.). The resistance of cell-free filters was subtracted from each experimental value.
PHK were plated on glass coverslips at 2-3×10^5 cells/well in a 6-well plate or at 2-3×10^4 cells/filter in Transwell insert (Costar; PET membrane, 0.4 μm pore size, 6.5 mm insert) in Keratinocyte-SFM without antibiotics. The next day after plating, cells were transfected with claudin-1 specific or control (scrambled) siRNAs (Santa Cruz) using Lipofectamine™ 2000 transfection Reagent (Invitrogen). TEER and permeability experiments were conducted 48 hours after PHK were switched to differentiation media.
TEER was measured in PHK as described above. PHK were stimulated with S. aureus-derived peptidoglycan (PGN, 0.2-20 μg/ml, n=3-7) (FIG. 19A), Malp-2 (10-1000 ng/ml, n=3) (FIG. 19B), and Pam3CSK4 a TLR1/2 ligand (0.01-20 μg/ml, n=3-6) (FIG. 19C). Data are presented by analyzing the area under the TEER curve and normalized to the mean values for the control group (media alone)*p<0.05; **p<0.01.

[3] = system: CLDN1, occludin, ZO-1 and CLDN23; experiment: Western blot of TJ proteins in PHK treated with PGN or TLR2 ligands; format: cell-based, human; conditions: 48 hr; PGN 0.2-20 μg/ml, Pam3CSK4 0.1-20 μg/ml, MALP2 10-1000 ng/ml
Experimental: PHFK were treated with PGN (0, 0.2, 2, 20 μg/ml) (as shown in FIG. 21A), Pam3CSK4 (0, 0.1, 1, 20 μg/ml) (as shown in FIG. 21B), MALP2 (0, 10, 100, 1000 ng/ml) for 48 hr and CLDN1 (as shown in FIG. 21C), occludin, ZO-1 and CLDN23 protein levels were detected from whole cell lysates by Western blot. Quantitative protein expression was determined by densitometry of bands and normalization to the housekeeping protein ([…]). (Representative blot of n=2-3 experiments).

claudin-1, sequence (O95832 whole entry): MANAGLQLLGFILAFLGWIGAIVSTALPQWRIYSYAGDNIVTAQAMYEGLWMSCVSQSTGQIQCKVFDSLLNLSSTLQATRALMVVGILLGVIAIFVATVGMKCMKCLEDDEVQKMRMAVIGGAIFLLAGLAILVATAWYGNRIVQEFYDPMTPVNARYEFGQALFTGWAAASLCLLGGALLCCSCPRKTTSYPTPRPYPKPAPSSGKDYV

CC1(COc2ccc(CC3SC(=O)NC3=O)cc2)CCCCC1 (stereo not shown) [ciglitazone]
CLDN1 mRNA, fold over DMSO alone (CLDN1 mRNA): 1.7 fold
occludin mRNA, fold (occludin mRNA): 2.0 fold
occludin mRNA, fold (occludin mRNA; listed as CIG): 2 fold

CCCCCCCCCC(=O)[O-].[Na+] [sodium decanoate]
paracellular permeability [1]: increased paracellular permeability
transepithelial electrical resistance [1]: decreased transepithelial electrical resistance
TEER, dmem + SC_1 (human epidermis sheet): 1.00
TEER, dmem + SC_2 (human epidermis sheet): 1.00
TEER, mean SC (human epidermis sheet): 1.00

IL-13: IL-13 (R&D system), Th2 cytokine
effect on expression of occludin and ZO-1 (occludin and ZO-1): no effect
claudin-1 expression, fold over control (claudin-1): 1.6±0.3 fold
effect on TEER in dose response experiments ([2]; 0.5-100 ng/ml, PHK): slight increase in TEER

Malp-2 [reference compound]
tight junction function (area under the TEER curve normalized to media alone) ([2]; PGN 0.2-20 μg/ml, Malp-2 10-1000 ng/ml, Pam3CSK4 0.01-20 μg/ml): increase tight junction function
TJ protein expressions [3]: increase TJ protein expressions

Pam3CSK4
TJ protein expressions [3]: increase TJ protein expressions

B1: IL-4: human IL-4 (R&D system), Th2 cytokine (protein, UniProt P05112 25-153, looked up)
Interleukin-4: HKCDITLQEIIKTLNSLTEQKTLCTELTVTDIFAASKNTTEKETFCRAATVLRQFYSHHEKDTRCLGATAQQFHRHKQLIRFLKRLDRNLWGLAGLNSCPVKEANQSTLENFLERLKTIMREKYSKCSS
effect on expression of occludin and ZO-1 (occludin and ZO-1): no effect
claudin-1 expression, fold over control (claudin-1): 2.1±0.4 fold
